The target in this assay is T1, human TLR7 (Homo sapiens, UniProt Q9NYK1).
T1 sequence (Q9NYK1 27-1049): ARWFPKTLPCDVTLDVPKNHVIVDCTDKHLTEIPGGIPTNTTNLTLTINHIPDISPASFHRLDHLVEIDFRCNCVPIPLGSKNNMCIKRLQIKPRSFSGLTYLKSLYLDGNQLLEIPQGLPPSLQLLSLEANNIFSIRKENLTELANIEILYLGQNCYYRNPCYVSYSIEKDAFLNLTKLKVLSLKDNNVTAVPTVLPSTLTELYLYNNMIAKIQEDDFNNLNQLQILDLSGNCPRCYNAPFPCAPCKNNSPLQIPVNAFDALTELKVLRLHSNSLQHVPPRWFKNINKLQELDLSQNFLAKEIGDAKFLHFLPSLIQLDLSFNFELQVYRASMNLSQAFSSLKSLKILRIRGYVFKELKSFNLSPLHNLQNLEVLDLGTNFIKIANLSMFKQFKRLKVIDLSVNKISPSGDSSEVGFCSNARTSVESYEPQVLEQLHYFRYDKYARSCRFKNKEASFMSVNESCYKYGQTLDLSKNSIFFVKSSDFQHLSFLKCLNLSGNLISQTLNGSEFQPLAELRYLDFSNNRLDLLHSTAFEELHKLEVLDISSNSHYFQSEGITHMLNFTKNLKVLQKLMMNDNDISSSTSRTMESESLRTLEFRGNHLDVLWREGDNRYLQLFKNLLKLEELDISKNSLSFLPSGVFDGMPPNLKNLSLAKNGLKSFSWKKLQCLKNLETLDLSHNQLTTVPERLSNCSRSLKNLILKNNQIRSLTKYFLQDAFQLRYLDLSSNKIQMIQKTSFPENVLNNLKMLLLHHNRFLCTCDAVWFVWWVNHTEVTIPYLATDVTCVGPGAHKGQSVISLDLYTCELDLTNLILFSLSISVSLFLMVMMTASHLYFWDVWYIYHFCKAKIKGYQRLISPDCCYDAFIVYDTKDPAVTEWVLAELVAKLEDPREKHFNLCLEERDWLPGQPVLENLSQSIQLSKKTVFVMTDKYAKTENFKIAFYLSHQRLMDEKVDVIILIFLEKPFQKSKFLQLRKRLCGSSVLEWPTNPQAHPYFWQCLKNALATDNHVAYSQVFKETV
Nature of the assay: HEK293-Blue-hTLR-7 cells assay. The settings on record: HEK293-Blue-hTLR7 cells, SEAP reporter, R848 stimulation, 20 hrs. The class given is cell-based. The text has this: HEK293-Blue-hTLR-7 Cells Assay:
A stable HEK293-Blue-hTLR-7 cell line was purchased from InvivoGen (Cat. #: hkb-htlr7, San Diego, Calif., USA). These cells were originally designed for studying the stimulation of human TLR7 by monitoring the activation of NF-κB. A SEAP (secreted embryonic alkaline phosphatase) reporter gene was placed under the control of the IFN-β minimal promoter fused to five NF-κB and AP-1-binding sites. The SEAP was induced by activating NF-κB and AP-1 via stimulating HEK-Blue hTLR7 cells with TLR7 ligands. Therefore the reporter expression was declined by TLR7 antagonist under the stimulation of a ligand, such as R848 (Resiquimod), for incubation of 20 hrs. The cell culture supernatant SEAP reporter activity was determined using QUANTI-Blue™ kit (Cat. #: rep-qb1, Invivogen, San Diego, Ca, USA) at a wavelength of 640 nm, a detection medium that turns purple or blue in the presence of alkaline phosphatase.
HEK293-Blue-hTLR7 cells were incubated at a density of 250,000˜450,000 cells/mL in a volume of 170 μL in a 96-well plate in Dulbecco's Modified Eagle's medium (DMEM) containing 4.5 g/L glucose, 50 U/mL penicillin, […], […], 2 mM L-glutamine, 10% (v/v) heat-inactivated fetal bovine serum with addition of 20 sL test compound in a serial dilution in the presence of final DMSO at 1% and 10 μL of 20 uM R848 in above DMEM, perform incubation under 37° C. in a CO2 incubator for 20 hrs. Then 20 μL of the supernatant from each well was incubated with 180 sL Quanti-blue substrate solution at 37° C. for 2 hrs and the absorbance was read at 620-655 nm using a spectrophotometer. The signalling pathway that TLR7 activation leads to downstream NF-κB activation has been widely accepted, and therefore similar reporter assay was modified for evaluating TLR7 antagonist.

Structures are written as SMILES.

With `N#Cc1ccc(N2C[C@@H](C(F)(F)F)[C@H](C(=O)N[C@H]3CNC[C@H]3F)C2)c2cccnc12` [Example 47, Trans-1-(8-cyano-5-quinolyl)-N-[(3S,4R)-4-fluoropyrrolidin-3-yl]-4-(trifluoromethyl)pyrrolidine-3-carboxamide], the IC50 is 0.124 µM. The figure for `O=C(NC1CC2CNCC2C1)C1CN(c2ccc(C(F)(F)F)c3nccnc23)CC12CC2` (stereo not drawn) [Example 21, N-(1,2,3,3a,4,5,6,6a-octahydrocyclopenta[c]pyrrol-5-yl)-5-[8-(trifluoromethyl)quinoxalin-5-yl]-5-azaspiro[2.4]heptane-7-carboxamide] is 0.028 µM. The figure for `N[C@@H]1CCC[C@H](NC(=O)C2CN(c3ccc(C(F)(F)F)c4nccnc34)CC23CC3)C1` (relative stereo) [Example 43, Cis-N-(3-aminocyclohexyl)-5-[8-(trifluoromethyl)quinoxalin-5-yl]-5-azaspiro[2.4]heptane-7-carboxamide] is 0.081 µM; for `C[C@H]1CN(c2ccc([N+](=O)[O-])c3ncccc23)C[C@@H]1C(=O)NC1CCN(C)CC1` [Example 27, (3R,4R)-4-Methyl-N-(1-methyl-4-piperidyl)-1-(8-nitro-5-quinolyl)pyrrolidine-3-carboxamide] it is 0.038 µM. Compound `C[C@H]1CN(c2ccc(C#N)c3nccnc23)C[C@@H]1C(=O)NC1CCN(C)CC1` [Example 3, (3R,4R)-1-(8-cyanoquinoxalin-5-yl)-4-methyl-N-(1-methyl-4-piperidyl)pyrrolidine-3-carboxamide] came in with an IC50 of 0.004 µM.

With `C[C@H]1CN(c2ccc(C#N)c3ncccc23)C[C@@H]1C(=O)NC1CCN(C)CC1` [Example 16, (3R,4R)-1-(8-cyano-5-quinolyl)-4-methyl-N-(1-methyl-4-piperidyl)pyrrolidine-3-carboxamide], the IC50 was 0.022 µM.

With `N[C@H]1CC[C@@H](NC(=O)C2CN(c3ccc(C(F)(F)F)c4nccnc34)CC23CC3)CC1` (stereo partly drawn) [Example 39, N-(4-Aminocyclohexyl)-5-[8-(trifluoromethyl)quinoxalin-5-yl]-5-azaspiro[2.4]heptane-7-carboxamide], the IC50 was found to be 0.074 µM. The figure for `CN1CCC(NC(=O)[C@H]2CN(c3ccc(C#N)c4ncccc34)C[C@@H]2C(F)(F)F)CC1` [Example 4, (3R,4R)-1-(8-cyano-5-quinolyl)-N-(1-methyl-4-piperidyl)-4-(trifluoromethyl)pyrrolidine-3-carboxamide] is 0.009 µM; for `C[C@@H]1CN(c2ccc(C#N)c3ncccc23)C[C@H]1C(=O)N1CCC2(CCNCC2)CC1` (relative stereo) [Example 32, Trans-5-[3-(3,9-diazaspiro[5.5]undecane-3-carbonyl)-4-methyl-pyrrolidin-1-yl]quinoline-8-carbonitrile] it is 0.044 µM. The figure for `CN1CC(NC(=O)C2CN(c3ccc(C(F)(F)F)c4nccnc34)CC23CC3)C2(CC2)C1` (stereo not drawn) [Example 20, N-(5-methyl-5-azaspiro[2.4]heptan-7-yl)-5-[8-(trifluoromethyl)quinoxalin-5-yl]-5-azaspiro[2.4]heptane-7-carboxamide] is 0.025 µM; for `CN1CCC(NC(=O)[C@@H]2CN(c3ccc(C#N)c4ncccc34)C[C@H]2C(F)(F)F)CC1` (relative stereo) [Example 17, Trans-1-(8-cyano-5-quinolyl)-N-(1-methyl-4-piperidyl)-4-(trifluoromethyl)pyrrolidine-3-carboxamide] it is 0.022 µM. Compound `O=C(NC1CC2CCCC(C1)N2)C1CN(c2ccc(C(F)(F)F)c3nccnc23)CC12CC2` (stereo not drawn) [Example 10, N-(9-azabicyclo[3.3.1]nonan-3-yl)-5-[8-(trifluoromethyl)quinoxalin-5-yl]-5-azaspiro[2.4]heptane-7-carboxamide] displayed an IC50 of 0.012 µM. Under `N#Cc1ccc(N2CC(C(=O)NC[C@@H]3CNCCO3)C3(CC3)C2)c2nccnc12` (single isomer, unassigned) [Example 71A] stands 0.021 µM; under `O=C(NC1CC2CNCC(C2)C1)C1CN(c2ccc(C(F)(F)F)c3nccnc23)CC12CC2` (stereo not drawn) [Example 15, N-(3-azabicyclo[3.3.1]nonan-7-yl)-5-[8-(trifluoromethyl)quinoxalin-5-yl]-5-azaspiro[2.4]heptane-7-carboxamide], 0.021 µM. Under `O=C(NC1C2CCC1CNC2)C1CN(c2ccc(C(F)(F)F)c3nccnc23)CC12CC2` (stereo not drawn) [Example 12, N-(3-azabicyclo[3.2.1]octan-8-yl)-5-[8-(trifluoromethyl)quinoxalin-5-yl]-5-azaspiro[2.4]heptane-7-carboxamide] stands 0.018 µM; under `C[C@@H]1CN(c2ccc(C#N)c3ncccc23)C[C@H]1C(=O)N1CCC2(CCNC2)C1` (relative stereo) [Example 53, Trans-5-[3-(2,7-diazaspiro[4.4]nonane-2-carbonyl)-4-methyl-pyrrolidin-1-yl]quinoline-8-carbonitrile], 0.226 µM; under `CC[C@@H]1CN(c2ccc(C#N)c3ncccc23)C[C@H]1C(=O)NC1CCN(C)CC1` (relative stereo) [Example 29, Trans-1-(8-cyano-5-quinolyl)-4-ethyl-N-(1-methyl-4-piperidyl)pyrrolidine-3-carboxamide], 0.04 µM. Compound `O=C(NC1CC2COCC(C1)N2)C1CN(c2ccc(C(F)(F)F)c3nccnc23)CC12CC2` (stereo not drawn) [Example 6, N-(3-oxa-9-azabicyclo[3.3.1]nonan-7-yl)-5-[8-(trifluoromethyl)quinoxalin-5-yl]-5-azaspiro[2.4]heptane-7-carboxamide] displayed an IC50 of 0.009 µM. In the case of `N#Cc1ccc(N2C[C@H](C(=O)NC3CCN(C4CCNCC4)CC3)[C@@H](C(F)(F)F)C2)c2nccnc12` [Example 35, (3R,4R)-1-(8-Cyanoquinoxalin-5-yl)-N-[1-(4-piperidyl)-4-piperidyl]-4-(trifluoromethyl)pyrrolidine-3-carboxamide], half-maximal inhibition (IC50) required 0.055 µM.

In turn, `CN1CCCC(CNC(=O)C2CN(c3ccc(C#N)c4ncccc34)CC23CC3)C1` (stereo not drawn) [Example 51, 5-(8-Cyano-5-quinolyl)-N-[(1-methyl-3-piperidyl)methyl]-5-azaspiro[2.4]heptane-7-carboxamide] showed an IC50 of 0.201 µM. Under `Cc1ccc(N2C[C@H](C(=O)NC3CCN(C)CC3)[C@@H](C)C2)c2nccnc12` [Example 33, (3R,4R)-4-Methyl-N-(1-methyl-4-piperidyl)-1-(8-methylquinoxalin-5-yl)pyrrolidine-3-carboxamide] stands 0.045 µM; under `CN1CCC(NC(=O)C2CN(c3ccc(C#N)c4nccnc34)CC23CC3)CC1` (single isomer, unassigned) [Example 7A, 5-(8-Cyanoquinoxalin-5-yl)-N-(1-methyl-4-piperidyl)-5-azaspiro[2.4]heptane-7-carboxamide], 0.004 µM; under `CN1CCC(NC(=O)C2CN(c3ccc(C#N)c4ncccc34)CC23CC3)CC1` (single isomer, unassigned) [Example 41A, 5-(8-Cyano-5-quinolyl)-N-(1-methyl-4-piperidyl)-5-azaspiro[2.4]heptane-7-carboxamide], 0.079 µM.

`C[C@H]1CN(c2ccc(C#N)c3nccnc23)C[C@@H]1C(=O)NC1CCN(C2CCNCC2)CC1` [Example 60, (3R,4R)-1-(8-cyanoquinoxalin-5-yl)-4-methyl-N-[1-(4-piperidyl)-4-piperidyl]pyrrolidine-3-carboxamide] returned a concentration for half-maximal inhibition (IC50) of 0.492 µM.

For the origin of these results see patent publication US20210323977A1, “PYRROLIDINYL AMIDE COMPOUNDS FOR THE TREATMENT OF AUTOIMMUNE DISEASE” (Hoffmann-La Roche Inc., priority 2018, published 2021).
